# Assay results reported in patent publication US20240199758A1, “METHOD FOR ALLOWING IMMUNE CELLS INFILTRATION IN TUMORS” (Alethia Biotherapeutics Inc., priority 2021, published 2024).
# “Also recorded” adds a separate entry of the source.
# Experiments:
# [1] = Phase I study: detection of AB-16B5 in tumor biopsies; assay type: in vivo, human; details: for Detection of AB-16B5 in Post-Treatment Biopsy: after Cycle 2 Day 15
# Description: (§1) Tumor biopsies were collected during the standard dose escalation to investigate the presence of AB-16B5 within the tumor. A total of 4 pre-treatment and 5 post-treatment tumor biopsies were suitable for analysis. These post-treatment tumor biopsies were collected following dosing on Cycle 2 Day 15 (between Cycle 2 Day 15 and Cycle 2 Day 18). The biopsy sites were liver (n=2), lymph node (n=2), bladder, skin and vulva.
# [2] = test system: tumor biopsies; assay: Phase I study: necrosis in paired tumor biopsies; assay type: in vivo, human
# Method: as §1
# Immunohistochemistry studies were conducted on paired tumor biopsies to determine if the treatment with AB-16B5 was associated with a reacquisition of an epithelial phenotype.
# [3] = test system: frozen Sprague-Dawley rat tissues; assay: Tissue cross-reactivity study, Sprague-Dawley rat tissues; assay type: binding; details: Sprague-Dawley rat tissue panel, 2 and 10 μg/mL
# Method: (§2) In addition, a tissue cross-reactivity study was conducted to determine the potential cross-reactivity of AB-16B5 with frozen tissues from human, Rhesus monkey, and Sprague-Dawley rat tissues.
# [4] = test system: human tumor biopsies; assay: Human tumor biopsies of patients treated with AB-16B5 as single agent (hematoxylin and eosin); assay type: in vivo; details: on-treatment biopsy after the second cycle
# Method: In parallel human tumor biopsies of patients treated with AB-16B5 as single agent were analyzed (FIGS. 2B-2E). Needle biopsies obtained from a patient with metastatic thyroid cancer and form a patient with inoperable metastatic gastric cancer were sectioned and stained with hematoxylin and eosin. An on-treatment biopsy from a patient with thyroid cancer metastasic to the lungs was obtained after the second cycle treatment with AB-16B5. […] Hemosiderin-laden macrophages were observed inside necrotic areas some reflecting red blood cell extravasation associated with necrosis (not shown).
# [5] = test system: advanced solid malignancy; assay: Phase I study AB-16B5-101: tumor response (RECIST) and best overall response; assay type: in vivo, human
# [6] = test system: frozen tissues from human; assay: Tissue cross-reactivity study, human tissues; assay type: binding; details: human tissue panel, 2 and 10 μg/mL
# Method: as §2
# [7] = thyroid cancer metastatic to the lungs, FIG. 2B
# [8] = Subject 001, Pancreatic, 1.5 mg/kg, 2 total cycles
# [9] = Subject 002, Endometrium, 3.0 mg/kg, 4 total cycles
# [10] = Subject 003, Soft Tissue Sarcoma, 6.0 mg/kg, 2 total cycles
# [11] = Subject 005, Prostate, 6.0 mg/kg, 2 total cycles
# [12] = Subject 010, Colorectal, 12.0 mg/kg, 4 total cycles
# [13] = Subject 012, Breast, 12.0 mg/kg, 2 total cycles
# [14] = Subject 013, Prostate, 12.0 mg/kg, 2 total cycles
# [15] = Subject 014, Vulvar Melanoma, 12.0 mg/kg, 2 total cycles
substance,measurement,setting,value
"AB-16B5: humanized IgG2 monoclonal antibody targeting sCLU for the inhibition of cancer-associated EMT; light chain SEQ ID NO:11, heavy chain SEQ ID NO:12",presence of AB-16B5 in post-treatment tumor biopsies,[1]; 5 post-treatment tumor biopsies,confirmed in all post-treatment tumor biopsies analyzed; also recorded: confirmed in all 5 pts
same,Detection of AB-16B5 in Post-Treatment Biopsy,"[1]; Subject 009, Lung, biopsy site Liver",Positive
same,Detection of AB-16B5 in Post-Treatment Biopsy,"[1]; Subject 010, Colorectal, biopsy site Liver",Positive
same,Detection of AB-16B5 in Post-Treatment Biopsy,"[1]; Subject 012, Breast, biopsy site Skin",Positive
same,Detection of AB-16B5 in Post-Treatment Biopsy,"[1]; Subject 013, Prostate, biopsy site Bladder",Positive
same,Detection of AB-16B5 in Post-Treatment Biopsy,"[1]; Subject 015, Ovarian, biopsy site Lymph node",Positive
same,Necrosis Post-Treatment,"[2]; Subject 006, Breast, biopsy site Skin (pre-treatment 0%)",10%
same,Necrosis Post-Treatment,"[2]; Subject 007, Gastric, biopsy site Gastric (pre-treatment 0%)",0%
same,Necrosis Post-Treatment,"[2]; Subject 012, Breast, biopsy site Skin (pre-treatment 0%)",5%
same,Necrosis Post-Treatment,"[2]; Subject 013, Prostate, biopsy site Bladder (pre-treatment 0%)",10%
same,AB-16B5 staining of tissue elements,[3],observed in a number of tissue elements
same,membrane staining,[3],no membrane staining was observed
same,immune infiltrate in tumor fragments,"[4]; metastatic gastric cancer, FIG. 2E",infiltrated by a mix neutrophilic and mononucleated immune cells infiltrate
same,immune infiltrate in tumor fragment,[4]; [7],A lymphoplasmacytic infiltrate was observed along the edge of the fragment
same,necrosis of tumor fragments,[4]; [7],essentially all tumor fragments were necrotic
same,subjects with best overall response progressive disease (PD),[5]; RECIST-evaluable population,43%
same,Best Overall Response,[5]; [8],PD (progressive disease (PD))
same,Tumor Response at Last Assessment: Non-Target Lesions,[5]; [8],PD (New
same,Tumor Response at Last Assessment: Target Lesions,[5]; [8],PD (progressive disease (PD))
same,Tumor Response at Last Assessment: Non-Target Lesions,[5]; [9],Non-CR/
same,Tumor Response at Last Assessment: Target Lesions,[5]; [9],PD (progressive disease (PD))
same,Best Overall Response,[5]; [10],PD (progressive disease (PD))
same,Tumor Response at Last Assessment: Non-Target Lesions,[5]; [10],PD (New
same,Tumor Response at Last Assessment: Non-Target Lesions,"[5]; Subject 004, Thyroid, 6.0 mg/kg, 17 total cycles",Non-CR/
same,Best Overall Response,[5]; [11],PD (progressive disease (PD))
same,Tumor Response at Last Assessment: Non-Target Lesions,[5]; [11],Non-CR/
same,Tumor Response at Last Assessment: Target Lesions,[5]; [11],PD (progressive disease (PD))
same,Tumor Response at Last Assessment: Non-Target Lesions,"[5]; Subject 006, Breast, 9.0 mg/kg, 3 total cycles",Non-CR/
same,Tumor Response at Last Assessment: Non-Target Lesions,"[5]; Subject 007, Gastric, 9.0 mg/kg, 8 total cycles",PD (New
same,Tumor Response at Last Assessment: Non-Target Lesions,"[5]; Subject 008, Thyroid, 9.0 mg/kg, 4 total cycles",PD (New
same,Tumor Response at Last Assessment: Non-Target Lesions,"[5]; Subject 009, Lung, 12.0 mg/kg, 6 total cycles",PD (New
same,Tumor Response at Last Assessment: Non-Target Lesions,[5]; [12],PD (New
same,Tumor Response at Last Assessment: Target Lesions,[5]; [12],PD (progressive disease (PD))
same,Best Overall Response,[5]; [13],PD (progressive disease (PD))
same,Tumor Response at Last Assessment: Non-Target Lesions,[5]; [13],PD (progressive disease (PD))
same,Best Overall Response,[5]; [14],PD (progressive disease (PD))
same,Tumor Response at Last Assessment: Non-Target Lesions,[5]; [14],PD (New
same,Best Overall Response,[5]; [15],PD (progressive disease (PD))
same,Tumor Response at Last Assessment: Non-Target Lesions,[5]; [15],PD (New
same,Tumor Response at Last Assessment: Non-Target Lesions,"[5]; Subject 015, Ovarian Cancer, 12.0 mg/kg, 4 total cycles",PD (New
same,time on treatment with stable disease (SD) with clinical benefit,[5]; patient with advanced gastric cancer,24 weeks
same,duration of SD,[5]; patient with follicular thyroid cancer,~1 year
same,AB-16B5 staining of tissue elements,[6],observed in a number of tissue elements
same,membrane staining,[6],no membrane staining was observed
